For this experiment, the target named is T1, CDK2 (Homo sapiens, UniProt P24941).
T1 construct: CDK2/GST-Cyclin E kinase complex produced in baculovirus expression system; with Cyclin E (GST-Cyclin E)
The experiment can be described thus: radiometric kinase assay (gamma-32P-ATP, histone H1 substrate) with purified recombinant CDK2/cyclin E. Type of experiment: biochemical.

For `O=c1[nH]c2c(nc3ccccn32)c2cccc(O)c12` [13-1-e], the IC50 (usually the point on the concentration scale where inhibition reaches its midpoint) was in the range of 1 to 2 µM. Under `O=c1[nH]c2c(nc3ccccn32)c2ccccc12` [13-1-a] stands approximately 100 µM.

(Values after PMC2633036, “Identifying Tumor Cell Growth Inhibitors by Combinatorial Chemistry and Zebrafish Assays” (PLoS ONE, 2009).)
